The text below walks through data of patent US11020395B2, “Cycloalkyl substituted triazole compounds as agonists of the APJ receptor” (AMGEN INC., priority 2016, dated 2021).

This experiment has as its target human APJ receptor (Homo sapiens (Human), UniProt P35414). Put plainly: [35S]GTPγS binding assay on membranes from CHO cells stably expressing human APJ receptor. It counts as biochemical. Particulars: [35S]GTPγS SPA. As for the experimental part: [^35S]GTPγS Binding The human APJ receptor was cloned by polymerase chain reaction and the gene encoding the receptor was subcloned in pFLAG-CMV™-3 expression vector (Sigma, Saint Louis, Mo. USA) in-house at Amgen. A GTPγS binding assay was performed on membranes prepared from CHO cells stably expressing human APJ receptor. The optimum experimental conditions for the concentrations of GDP, MgCl2, and NaCl in the assay buffer were initially determined. […] Incubation was at RT for 90 min and the microplate was read using a ViewLux™ ultra HTS Microplate Imager (PerkinElmer, Inc.). All the results presented are means of several independent experiments and analyzed by non-linear regression methods using the commercially available program Prism (GraphPad, San Diego, Calif.) providing the EC50 values detailed in Table 25.

[1] abbreviates: read-out: Activity hAPJ SPA EC50 IP.

Where two headings read alike, the source gives them in different places.

Chain of human APJ receptor (P35414 whole entry): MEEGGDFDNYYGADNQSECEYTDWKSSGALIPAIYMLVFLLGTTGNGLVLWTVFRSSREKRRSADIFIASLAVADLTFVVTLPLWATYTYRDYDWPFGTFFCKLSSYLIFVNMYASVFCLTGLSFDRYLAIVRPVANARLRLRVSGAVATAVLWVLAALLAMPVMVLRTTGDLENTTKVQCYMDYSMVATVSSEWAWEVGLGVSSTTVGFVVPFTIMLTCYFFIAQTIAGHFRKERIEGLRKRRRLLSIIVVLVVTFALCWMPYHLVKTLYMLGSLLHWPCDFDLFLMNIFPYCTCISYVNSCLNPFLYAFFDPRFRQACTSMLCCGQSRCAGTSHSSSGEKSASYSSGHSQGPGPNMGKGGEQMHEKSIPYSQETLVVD

On to “(1S,2S)-N-(4-(2,6-dimethoxyphenyl)-5-(trans-3-methoxycyclobutyl)-4H-1,2,4-triazol-3-yl)-1-(5-methyl-2-pyrimidinyl)-1-(2-propanyloxy)-2-propanesulfonamide or (1S,2S)-N-(4-(2,6-dimethoxyphenyl)-5-(cis-3-methoxycyclobutyl)-4H-1,2,4-triazol-3-yl)-1-(5-methyl-2-pyrimidinyl)-1-(2-propanyloxy)-2-propanesulfonamide [Example 226.0]”, for which the EC50 under setting [1] turned out to be 21 nM.

Take `COc1cccc(OC)c1-n1c(NS(=O)(=O)[C@@H](C)[C@H](OC)c2ncc(Cl)cn2)nnc1[C@H]1CC[C@H](OC)C1` (single isomer, unassigned) [Example 214.0]: the EC50 under setting [1] is 20 nM.

As for `COc1ncnc(OC)c1-n1c(NS(=O)(=O)[C@@H](C)[C@H](OC)c2ncc(Cl)cn2)nnc1[C@H]1C[C@H](C)C1` [Example 185.0, (1R,2S)-1-(5-chloro-2-pyrimidinyl)-N-(4-(4,6-dimethoxy-5-pyrimidinyl)-5-(trans-3-methylcyclobutyl)-4H-1,2,4-triazol-3-yl)-1-methoxy-2-propanesulfonamide], the EC50 under setting [1] amounted to 2.7 nM.

For the compound “(1R,2S)-1-(5-chloropyrimidin-2-yl)-N-(5-((R)-2,2-dimethylcyclopropyl)-4-(tetrahydro-2H-pyran-4-yl)-4H-1,2,4-triazol-3-yl)-1-methoxypropane-2-sulfonamide or (1R,2S)-1-(5-chloropyrimidin-2-yl)-N-(5-((S)-2,2-dimethylcyclopropyl)-4-(tetrahydro-2H-pyran-4-yl)-4H-1,2,4-triazol-3-yl)-1-methoxypropane-2-sulfonamide [Example 21.0]”, the EC50 under setting [1] was 480 nM.

`CC(C)O[C@@H](c1ncc(Cl)cn1)[C@H](C)S(=O)(=O)Nc1nnc(C2CCC2)n1C1CCOCC1` [Example 211.0, (1S,2S)-1-(5-chloro-2-pyrimidinyl)-N-(5-cyclobutyl-4-(tetrahydro-2H-pyran-4-yl)-4H-1,2,4-triazol-3-yl)-1-(2-propanyloxy)-2-propanesulfonamide]: the EC50 under setting [1] turned out to be 420 nM.

As for `COc1ncnc(OC)c1-n1c(NS(=O)(=O)[C@@H](C)[C@H](OC)c2ncc(Cl)cn2)nnc1[C@H]1CC[C@@H](F)CC1` (single isomer, unassigned) [Example 175.0, (1R,2S)-1-(5-chloropyrimidin-2-yl)-N-(4-(4,6-dimethoxypyrimidin-5-yl)-5-((1s,4R)-4-fluorocyclohexyl)-4H-1,2,4-triazol-3-yl)-1-methoxypropane-2-sulfonamide or (1R,2S)-1-(5-chloropyrimidin-2-yl)-N-(4-(4,6-dimethoxypyrimidin-5-yl)-5-((1r,4S)-4-fluorocyclohexyl)-4H-1,2,4-triazol-3-yl)-1-methoxypropane-2-sulfonamide], the EC50 under setting [1] was 59 nM.

`COc1ncnc(OC)c1-n1c(NS(=O)(=O)[C@@H](C)[C@H](OC)c2ncc(Cl)cn2)nnc1[C@H]1CC[C@@H]1F` (single isomer, unassigned) [Example 181.0, (1R,2S)-1-(5-chloropyrimidin-2-yl)-N-(4-(4,6-dimethoxypyrimidin-5-yl)-5-((1R,2S)-2-fluorocyclobutyl)-4H-1,2,4-triazol-3-yl)-1-methoxypropane-2-sulfonamide or (1R,2S)-1-(5-chloropyrimidin-2-yl)-N-(4-(4,6-dimethoxypyrimidin-5-yl)-5-((1S,2R)-2-fluorocyclobutyl)-4H-1,2,4-triazol-3-yl)-1-methoxypropane-2-sulfonamide]: the EC50 under setting [1] turned out to be 32 nM.

As for `COc1cccc(OC)c1-n1c(NS(=O)(=O)[C@@H](C)[C@H](OC)c2ncc(Cl)cn2)nnc1C1CC(C)(C)C1` [Example 119.0], the EC50 under setting [1] turned out to be 0.79 nM.

Take `COc1cccc(OC)c1-n1c(NS(=O)(=O)[C@@H](C)[C@H](OC)c2ncc(Cl)cn2)nnc1[C@H]1C[C@@H](C#N)C1` (single isomer, unassigned) [Example 121.0, (1R,2S)-1-(5-chloro-2-pyrimidinyl)-N-(5-(cis-3-cyanocyclobutyl)-4-(2,6-dimethoxyphenyl)-4H-1,2,4-triazol-3-yl)-1-methoxy-2-propanesulfonamide or (1R,2S)-1-(5-chloro-2-pyrimidinyl)-N-(5-(trans-3-cyanocyclobutyl)-4-(2,6-dimethoxyphenyl)-4H-1,2,4-triazol-3-yl)-1-methoxy-2-propanesulfonamide]: the EC50 under setting [1] was determined as 5.4 nM.

Regarding `COc1cccc(OC)c1-n1c(NS(=O)(=O)[C@@H](C)[C@@H](OC(C)C)c2ncc(C)cn2)nnc1[C@@H]1CCC(F)(F)C1` (mixture of isomers) [Example 232.0, (1S,2S)-N-(5-((1R)-3,3-difluorocyclopentyl)-4-(2,6-dimethoxyphenyl)-4H-1,2,4-triazol-3-yl)-1-(5-methyl-2-pyrimidinyl)-1-(2-propanyloxy)-2-propanesulfonamide and (1S,2S)-N-(5-((1S)-3,3-difluorocyclopentyl)-4-(2,6-dimethoxyphenyl)-4H-1,2,4-triazol-3-yl)-1-(5-methyl-2-pyrimidinyl)-1-(2-propanyloxy)-2-propanesulfonamide], under setting [1], the EC50 is 42 nM.

Take `COc1ncnc(OC)c1-n1c(NS(=O)(=O)[C@@H](C)[C@H](OC)c2ncc(Cl)cn2)nnc1[C@@H]1CC[C@@H]1F` (single isomer, unassigned) [Example 180.0, (1R,2S)-1-(5-chloropyrimidin-2-yl)-N-(4-(4,6-dimethoxypyrimidin-5-yl)-5-((1S,2S)-2-fluorocyclobutyl)-4H-1,2,4-triazol-3-yl)-1-methoxypropane-2-sulfonamide or (1R,2S)-1-(5-chloropyrimidin-2-yl)-N-(4-(4,6-dimethoxypyrimidin-5-yl)-5-((1R,2R)-2-fluorocyclobutyl)-4H-1,2,4-triazol-3-yl)-1-methoxypropane-2-sulfonamide]: under setting [1], the EC50 was 24 nM.

Turning to `COCC(COC)n1c(NS(=O)(=O)[C@@H](C)[C@H](OC)c2ncc(Cl)cn2)nnc1[C@H]1C[C@H](CO)C1` (single isomer, unassigned) [Example 131.0, (1R,2S)-1-(5-chloropyrimidin-2-yl)-N-(4-(1,3-dimethoxypropan-2-yl)-5-((1r,3S)-3-(hydroxymethyl)cyclobutyl)-4H-1,2,4-triazol-3-yl)-1-methoxypropane-2-sulfonamide or (1R,2S)-1-(5-chloropyrimidin-2-yl)-N-(4-(1,3-dimethoxypropan-2-yl)-5-((1s,3R)-3-(hydroxymethyl)cyclobutyl)-4H-1,2,4-triazol-3-yl)-1-methoxypropane-2-sulfonamide], under setting [1], the EC50 is 110 nM.

Take `COc1ncnc(OC)c1-n1c(NS(=O)(=O)[C@@H](C)[C@H](OC)c2ncc(C)cn2)nnc1C1CC2(CC2)C1` [Example 201.0]: the concentration giving a half-maximal response (EC50) under setting [1] came out at 11 nM.

With `COc1ncnc(OC)c1-n1c(NS(=O)(=O)[C@@H](C)[C@H](C)c2ncc(C)cn2)nnc1C1CC1` [Example 3.0, (2S,3R)-N-(5-cyclopropyl-4-(4,6-dimethoxy-5-pyrimidinyl)-4H-1,2,4-triazol-3-yl)-3-(5-methyl-2-pyrimidinyl)-2-butanesulfonamide], the EC50 under setting [1] was determined as 56 nM.

As for `COc1cccc(OC)c1-n1c(NS(=O)(=O)[C@@H](C)[C@H](OC)c2ncc(C)cn2)nnc1C1CC1` [Example 16.0, (1R,2S)—N-(5-Cyclopropyl-4-(2,6-dimethoxyphenyl)-4H-1,2,4-triazol-3-yl)-1-methoxy-1-(5-methyl-2-pyrimidinyl)-2-propanesulfonamide], it took 22 nM to reach a half-maximal effect (Activity hAPJ SPA EC50 IP) (EC50).

As for `COc1cccc(OC)c1-n1c(NS(=O)(=O)[C@@H](C)[C@H](OC)c2ncc(Cl)cn2)nnc1[C@@H]1CC[C@H]1C` (single isomer, unassigned) [Example 208.0], the EC50 under setting [1] was 2.7 nM.

As to `COc1ncnc(OC)c1-n1c(NS(=O)(=O)[C@@H](C)[C@H](OC)c2ncc(Cl)cn2)nnc1C1CC2(CCC2)C1` [Example 184.0, (1R,2S)-1-(5-chloro-2-pyrimidinyl)-N-(4-(4,6-dimethoxy-5-pyrimidinyl)-5-(spiro[3.3]heptan-2-yl)-4H-1,2,4-triazol-3-yl)-1-methoxy-2-propanesulfonamide], the EC50 under setting [1] was determined as 1.1 nM.

Turning to `COc1cccc(OC)c1-n1c(NS(=O)(=O)[C@@H](C)[C@@H](OC(C)C)c2ncc(C)cn2)nnc1[C@H]1C2CC1[C@@H]2O` [Example 228.0, (1S,2S)-N-(4-(2,6-dimethoxyphenyl)-5-(cis-4-hydroxybicyclo[1.1.1]pentan-2-yl)-4H-1,2,4-triazol-3-yl)-1-isopropoxy-1-(5-methylpyrimidin-2-yl)propane-2-sulfonamide and (1S,2S)-N-(4-(2,6-dimethoxyphenyl)-5-(trans-4-hydroxybicyclo[1.1.1]pentan-2-yl)-4H-1,2,4-triazol-3-yl)-1-isopropoxy-1-(5-methylpyrimidin-2-yl)propane-2-sulfonamide], the EC50 under setting [1] was found to be 190 nM.

As for `CO[C@H](c1ncc(Cl)cn1)[C@H](C)S(=O)(=O)Nc1nnc([C@H]2C[C@H](CO)C2)n1C1CC1` (single isomer, unassigned) [Example 135.0, (1R,2S)-1-(5-chloro-2-pyrimidinyl)-N-(4-cyclopropyl-5-(trans-3-(hydroxymethyl)cyclobutyl)-4H-1,2,4-triazol-3-yl)-1-methoxy-2-propanesulfonamide or (1R,2S)-1-(5-chloro-2-pyrimidinyl)-N-(4-cyclopropyl-5-(cis-3-(hydroxymethyl)cyclobutyl)-4H-1,2,4-triazol-3-yl)-1-methoxy-2-propanesulfonamide], the EC50 under setting [1] was 1810 nM.
